The test system of assay [1] is guinea pigs. Kind of assay: Effect on urination efficiency in guinea pigs, Experimental Example 3. The settings on record: for Efficiency of Urination (%) Before adm. / Efficiency of Urination (%) After adm. / Improvement of Efficiency (%): guinea pig; for Efficiency of Urination (%) Before adm.: before administration; for Efficiency of Urination (%) After adm. / Improvement of Efficiency (%): 30 minutes after administration. It is filed as in vivo, Hartley male guinea pigs. The source says: Effect of the compounds of Reference Examples on urination efficiency was examined using Hartley male guinea pigs. Six to ten Hartley male guinea pigs weighing 346.5±3.5 g (SLC) were employed in each treated group. Guinea pigs were anesthetized with urethane, and held, and the bladder was exposed. Two polyethylene tubes (PE-50 and PE-100) were inserted into the bladder. One (PE-50) of the tubes was used in infusion of physiological saline, and the other (PE-100) was used for measurement of the internal pressure of the bladder. Saline was infused continuously at a flow rate of 0.3 mL/min. The infusion was stopped at the time when intermittent urination was confirmed at least 3 times, and the whole saline in bladder was removed. Again, infusion was started, and stopped at the time when a rise of the pressure in bladder was confirmed immediately before urination, and the time required for infusion and the weight of excreted urine were measured. Efficiency of urination was calculated from the following equation. Efficiency of urination (%)=100×Excreted volume (mL)/Infusion time (min)×0.3 (mL/min)
Measurement was made at least 2 times before administration of the test compound, and then the test compound was dissolved in distilled water and administered intravenously. […] Effect by administration of solvents was also confirmed.
The average measured value before administration of the test compounds was regarded as the value before administration, and applied to the paired-t test for a significant difference test with the value after the administration. (** p<0.01, * p<0.05)

The target in assay [2] is T1, human erythrocyte-derived acetylcholine esterase (Homo sapiens, UniProt P22303).
T1 construct: Acetylcholinesterase of human erythrocyte origin (Sigma Chemical Co.); purchased Sigma Chemical Co; host or cells: human erythrocytes (natural source)
Kind of assay: Determination of the activity to inhibit the acetylcholine esterase of the crystals (Ellman method), Experimental Example 5. It is filed as biochemical. The settings on record: at least three experiments. The protocol: The activity to inhibit the acetylcholine esterase of the crystals obtained in Example 1 was determined according to the acetylthiocholine method (the Ellman method) by the use of a human erythrocyte-derived acetylcholine esterase.
A human erythrocyte-derived acetylcholine esterase (Sigma Chemical Company) was dissolved into distilled water to obtain a standard enzyme preparation with an enzyme concentration of 0.2 IU/mL. […]
The activity to inhibit the acetylcholine esterase of the crystals obtained in Example 1 was determined according to the acetylthiocholine method (the ElIman method) by the use of a human erythrocyte-derived acetylcholine esterase.
A human erythrocyte-derived acetylcholine esterase (Sigma Chemical Company) was dissolved into distilled water to obtain a standard enzyme preparation with an enzyme concentration of 0.2 IU/mL. […] As soon as 50 μl of a 4-mM solution of acetylthiocholine iodide (Sigma Chemical Company) was added and shaking was started again, every increment in absorbance at the wavelength of 414 nm at an interval of 30 seconds was determined for 10 minutes. R=5.74×10^−7×ΔA (wherein R indicates an enzyme activity (mol) and ΔA indicates an increment in absorbance at the wavelength of 414 nm). […] Furthermore, the activity to inhibit the acetylcholine esterase of distigmine was determined in a manner similar to that described in the above method.

The test system of assay [3] is guinea pigs. As to the kind of experiment: Effect on the flow rate of urine in guinea pigs, single or combined use, Experimental Example 4. It is filed as in vivo, Hartley male guinea pigs. The source says:
Effect on the flow rate of urine by single or combined use of Compounds of Reference Examples, distigmine, prazosin, and tamsulosin was examined using Hartley male guinea pigs. Four to six Hartley male guinea pigs weighing about 350 g (SLC) were employed in each treated group. Guinea pigs were anesthetized with urethane, and held, and the bladder was exposed. Two polyethylene tubes (PE-100) were inserted into the bladder. One of the tubes was used in infusion of physiological saline, and the other used for measurement of the internal pressure of the bladder. Saline was infused continuously at a flow rate of 0.3 mL/min. The infusion was stopped at the time when intermittent urination was confirmed at least 3 times, and the whole saline in bladder was removed. Again, infusion was started, and stopped at the time when a rise of the pressure in bladder was confirmed immediately before urination. Excreted urine was weighed on an electronic force balance (HX-400, A&D). Analogue data of the internal pressure of the bladder and urine weight were input in an AD converter (MP-30, Biopac Systems) and the digital signal was analyzed by means of purpose-made software (Student lab pro 2.1.5, Biopac Systems). Sampling interval of the date was fixed at 0.1 second, and the value of urine weight was differentiated to determine the flow rate of urine. In order to remove data noise of the excretion volume and flow rate of urine, the data was adapted to a lowcut filter at 0.5 Hz.
Measurement was made 2 times before administration of the test compound, and then the test compound was administered intravenously. Again, measurement was made 10 minutes after administration of the test compound.
The average measured value before administration of the test compounds was regarded as the value before administration, and the rate of change of the values from the ante-administration to the post-administration was calculated to compare between the groups by means of the Dunnet's test.

For orientation: IC50 means the midpoint of a concentration-inhibition curve.

The structures appear in SMILES notation. Marks after values point to notes of the source that are not given here.

T1 sequence (P22303 32-617 isoform P22303-2 limits assumed): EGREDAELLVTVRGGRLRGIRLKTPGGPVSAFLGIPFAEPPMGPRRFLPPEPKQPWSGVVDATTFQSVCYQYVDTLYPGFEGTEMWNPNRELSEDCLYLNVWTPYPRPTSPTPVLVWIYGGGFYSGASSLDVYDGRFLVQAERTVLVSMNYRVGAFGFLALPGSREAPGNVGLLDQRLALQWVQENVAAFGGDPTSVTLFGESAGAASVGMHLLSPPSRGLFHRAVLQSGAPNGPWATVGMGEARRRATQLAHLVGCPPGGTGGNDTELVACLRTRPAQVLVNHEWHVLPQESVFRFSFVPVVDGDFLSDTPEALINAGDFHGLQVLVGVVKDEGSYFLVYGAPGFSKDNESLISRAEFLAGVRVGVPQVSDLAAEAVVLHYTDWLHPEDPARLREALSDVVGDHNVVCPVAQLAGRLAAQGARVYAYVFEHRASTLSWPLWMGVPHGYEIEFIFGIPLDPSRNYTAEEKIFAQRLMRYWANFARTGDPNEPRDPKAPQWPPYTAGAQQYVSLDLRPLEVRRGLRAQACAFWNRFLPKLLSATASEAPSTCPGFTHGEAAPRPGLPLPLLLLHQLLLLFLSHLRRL

In the case of `CN(CCCCCCN(C)C(=O)Oc1ccc[n+](C)c1)C(=O)Oc1ccc[n+](C)c1` [Distigmine, reference compound], the “improvement of urination efficiency (in words)” value in assay [1] (conclusion from Table 7) was “poor and it makes the efficiency worse at a high dose”. For the same compound, the “Efficiency of Urination (%) Before adm.” value in assay [1] (0.1 mg/kg i.v. group) is reported as 79.1 ± 5.7%; in assay [1] (0.3 mg/kg i.v. group (distigmine)), 67.4 ± 4.3%; in assay [1] (1 mg/kg i.v. group (distigmine)), 78.6 ± 6.7%; in assay [1] (3 mg/kg i.v. group (distigmine)), 68.6 ± 7.0%. Besides, the “Efficiency of Urination (%) After adm.” value in assay [1] (0.1 mg/kg i.v.) is reported as 90.9 ± 2.7%; in assay [1] (0.3 mg/kg i.v.), 75.3 ± 3.7%; in assay [1] (1 mg/kg i.v.), 67.8 ± 4.6%; in assay [1] (3 mg/kg i.v.) it was 48.1 ± 8.5%. Further, the “Improvement of Efficiency (%)” value in assay [1] (0.1 mg/kg i.v.) is on record as 20.4%; in assay [1] (0.3 mg/kg i.v.), 14.7%; in assay [1] (1 mg/kg i.v.), −11.6%; in assay [1] (3 mg/kg i.v.), −30.9** %. In assay [2], this compound gave an IC50 of 652 nM. Also, the “improvement of the flow rate of urine (in words)” value in assay [3] (conclusion from Tables 8 and 9, alone and in combination with α-blockers) is “poor and not enhanced even in combination with an α-blocker prazosin”. For the same compound, in assay [3] (guinea pig, distigmine 1.0 mg/kg i.v. group, before administration (Table 8)), the “Flow Rate (mL/sec) Ante-admn.” value came out at 0.25 ± 0.05 mL/s. Also, the “Flow Rate (mL/sec) Post-admn.” value in assay [3] (guinea pig, distigmine 1.0 mg/kg i.v., 10 minutes after administration (Table 8)) is 0.22 ± 0.05 mL/s. In addition, the “Improvement (%)” value in assay [3] (guinea pig, distigmine 1.0 mg/kg i.v., 10 minutes after administration, control DMSO (Table 8)) is on record as −8.31 ± 11.13%.
